{
  "source": "patent US20230304024A1",
  "about": "“Modulation of Gene Expression Via Transcription Factor-Chemically Induced Proximity (TF-CIP)” (The Board of Trustees of the Leland Stanford Junior …, priority 2020, published 2023)",
  "key": {"BCL6 reporter": {"tested_on": "BCL6 reporter", "test": "BCL6 reporter GFP activation", "format": "cell-based, human", "settings": "FIG. 6 Panel A", "text": "FIGS. 5A to 5C illustrate the development of reporters for activation of cell death or pro-apoptotic pathways by the disinhibited BCL6 protein or the pro-apoptotic protein FOXO3A. FIG. 5A: The BCL6 reporter consists of an array of BCL6 binding sites taken from different pro-apoptotic genes including TP53, PUMA, BIM and others. These genes have the ability to kill cells when simply overexpressed (PMID:11463391). Ten base pairs on either side of the actual human BCL6 binding site are included to take advantage of the fact that transcriptional specificity is due to the concerted binding of proteins in an enhanceosome (PMID:9510247, 18206362).\n(§1) Note that the higher concentrations lead to a reduction in activation of the reporter consistent with the “hook effect” characteristic of bifunctional molecules as they saturate both binding sites.(PMID: 8752278; PMID:21406691), in this case the BCL6 protein and the estrogen receptor. […] Panel C. […] Viability was measured using the PrestoBlue HS (resazurin) assay for viable cells (1:10 ratio in media and 1 h incubation).\nFIGS. 5A to 5C provide examples of how one measures the effect of a TF-CIP to allow chemical optimization of linker and ligands. […] Thus, the reporter system is multiplexed and useful for defining and quantitating apoptotic responses in many different cell types. […]"}, "Karpas 422": {"tested_on": "Karpas 422", "test": "Cell death / viability, PrestoBlue HS (resazurin) assay, Karpas 422", "format": "cell-based", "settings": "FIG. 6 Panel B, ER-positive cells with amplified/rearranged BCL6, compared with BI3812", "protocol": "as §1\n(§2) These reporter systems and direct measures of cancer cell killing were used to assess the TF-CIP molecules made by rational design that are illustrated in FIG. 4. As shown in Panel A, addition of ER-TF-CIP6 activates GFP expression by the BCL reporter with an EC50 of about 1 to 10 micromolar. […] Note that the higher concentrations lead to a reduction in activation of the reporter consistent with the “hook effect” characteristic of bifunctional molecules as they saturate both binding sites. (PMID: 8752278; PMID:21406691), in this case the BCL6 protein and the estrogen receptor. […] Viability was measured using the PrestoBlue HS (resazurin) assay for viable cells (1:10 ratio in media and 1 h incubation)."}, "[1]": {"tested_on": "ER-negative breast cancer cell lines", "test": "Cell death / viability, PrestoBlue HS (resazurin) assay, ER-negative breast cancer cell lines", "format": "cell-based", "settings": "FIG. 6 Panels D and E; two ER-negative or low-ER breast cancer cell lines", "protocol": "as §1, §2"}, "HEK293 cells": {"tested_on": "HEK293 cells", "test": "Cell death / viability, PrestoBlue HS (resazurin) assay, HEK293", "format": "cell-based", "settings": "FIG. 6 Panel C", "protocol": "as §1, §2"}},
  "note": "Entries after “also recorded” stand apart in the source; their conditions may differ.",
  "data": [
    {"smiles": "CNC(=O)COc1cc2cc(Nc3nc(N4CCC(C(=O)NCCOCCOCCNC(=O)CO/N=C5\\CCC6C7CCc8cc(O)ccc8C7CC[C@]56C)CC4)ncc3Cl)cc(OC)c2n(C)c1=O", "note": "(stereo partly drawn) [ER-TF-CIP6]", "values": [
      {"measurement": "potency in BCL6 reporter relative to BI3812", "setting": "BCL6 reporter; comparison with parent compound BI3812", "value": "substantially lower concentration than that of the parent compound"},
      {"measurement": "EC50", "setting": "BCL6 reporter; Homo sapiens, read-out: EC50 of activation of GFP expression by the BCL reporter", "value": "1 to 10", "unit": "µM"},
      {"measurement": "induction of cell death", "setting": "Karpas 422", "value": "more effectively than B13812"},
      {"measurement": "induction of cell death", "setting": "Karpas 422; listed as ER-TFCIP6", "value": "more effectively than BI3812"},
      {"measurement": "cell killing", "setting": "[1]", "value": "does not kill; also recorded: are not killed"},
      {"measurement": "induction of cell death", "setting": "HEK293 cells", "value": "induces cell death"}
    ]}
  ]
}
